Measured values taken from patent US20080200442A1, “Compositions and Methods for Treating, Reducing, Ameliorating, or Preventing Infections of the Ear or Upper Respiratory Tract” (priority 2007, published 2008).
Converted amounts (≈) assume the structure as drawn.

Columns and labels:
Format in all cases: cell-based
[1] = test system: Propionibacterium acnes (ATCC 6919); assay: In vitro anti-bacterial activity (MIC90), anaerobic reference bacteria; settings: Cutibacterium acnes, ATCC6919
[2] = test system: Propionibacterium acnes (GAI 5419); assay: as above; settings: Cutibacterium acnes
[3] = test system: Clostridium perfringens (KZ 210); assay: microbe, parasite or virus in culture
[4] = test system: Bacteroides thetaiotaomicron (GAI 0659); assay: In vitro anti-bacterial activity (MIC90), anaerobic reference bacteria; settings: Bacteroides thetaiotaomicron
[5] = test system: Staphylococcus aureus (No. 421); assay: In vitro anti-bacterial activity (MIC90), methicillin-resistant Staphylococcus aureus isolates; settings: methicillin-resistant Staphylococcus aureus (No. 421)
Description: (§1) Anti-bacterial activity of the compound having Formula III was tested against several Gram-negative reference bacteria strains and compared to the anti-bacterial activity of three commercially available antibiotics (nadifloxacin, ofloxacin, and sparfloxacin). The results are shown in Table 2 as MIC90 values (minimum concentration of the active compound required to inhibit ninety percent of the growth of a specified pathogen, in μg/ml).
(§2) Anti-bacterial activity of the compound having Formula III was tested against some methicillin-resistant Staphylococcus aureus bacteria strains and compared to the anti-bacterial activity of three commercially available antibiotics (nadifloxacin, ofloxacin, and sparfloxacin).

[6] = test system: Staphylococcus aureus (No. 395); assay: as above; settings: methicillin-resistant Staphylococcus aureus (No. 395)
Description: as §1, §2

[7] = test system: Staphylococcus aureus (ATCC 33591); assay: as above; settings: ATCC33591; methicillin-resistant Staphylococcus aureus (ATCC 33591)
Description: as §1, §2

[8] = test system: Staphylococcus aureus (ATCC 33592); assay: as above; settings: ATCC33592; methicillin-resistant Staphylococcus aureus (ATCC 33592)
Description: as §1, §2

[9] = test system: Staphylococcus aureus (No. 419); assay: as above; settings: methicillin-resistant Staphylococcus aureus (No. 419)
Description: as §1, §2

[10] = test system: Staphylococcus aureus (No. 420); assay: as above; settings: methicillin-resistant Staphylococcus aureus (No. 420)
Description: as §1, §2

[11] = test system: Staphylococcus aureus (No. 415); assay: as above; settings: methicillin-resistant Staphylococcus aureus (No. 415)
Description: as §1, §2

[12] = test system: Staphylococcus aureus (ATCC 33593); assay: as above; settings: ATCC33593; methicillin-resistant Staphylococcus aureus (ATCC 33593)
Description: as §1, §2

[13] = test system: Veillonella parvula (GAI 5602); assay: In vitro anti-bacterial activity (MIC90), anaerobic reference bacteria
[14] = test system: Sarcina lutea (ATCC 9341); assay: In vitro anti-bacterial activity (MIC90), Gram-positive reference strains; settings: Micrococcus luteus, ATCC9341
Description: as §1, with “μg/ml). Anti-bacterial activity of the compound having Formula III was tested against several Gram-positive reference bacteria strains and compared to the anti-bacterial activity of three commercially available antibiotics (nadifloxacin, ofloxacin, and sparfloxacin).” for “μg/ml).”

[15] = test system: Streptococcus pyogenes (IID 698); assay: as above; settings: IID698
Description: as §1, with “μg/ml). Anti-bacterial activity of the compound having Formula III was tested against several Gram-positive reference bacteria strains and compared to the anti-bacterial activity of three commercially available antibiotics (nadifloxacin, ofloxacin, and sparfloxacin).” for “μg/ml).”

[16] = test system: Staphylococcus aureus (Smith); assay: as above
Description: as §1, with “μg/ml). Anti-bacterial activity of the compound having Formula III was tested against several Gram-positive reference bacteria strains and compared to the anti-bacterial activity of three commercially available antibiotics (nadifloxacin, ofloxacin, and sparfloxacin).” for “μg/ml).”

[17] = test system: Streptococcus faecalis (IFO 12964); assay: as above; settings: Enterococcus faecalis, IFO12964
Description: as §1, with “μg/ml). Anti-bacterial activity of the compound having Formula III was tested against several Gram-positive reference bacteria strains and compared to the anti-bacterial activity of three commercially available antibiotics (nadifloxacin, ofloxacin, and sparfloxacin).” for “μg/ml).”

[18] = test system: Staphylococcus aureus (FDA 209P); assay: as above; settings: FDA209P
Description: as §1, with “μg/ml). Anti-bacterial activity of the compound having Formula III was tested against several Gram-positive reference bacteria strains and compared to the anti-bacterial activity of three commercially available antibiotics (nadifloxacin, ofloxacin, and sparfloxacin).” for “μg/ml).”

[19] = test system: Streptococcus pyogenes (Cook); assay: as above
Description: as §1, with “μg/ml). Anti-bacterial activity of the compound having Formula III was tested against several Gram-positive reference bacteria strains and compared to the anti-bacterial activity of three commercially available antibiotics (nadifloxacin, ofloxacin, and sparfloxacin).” for “μg/ml).”

[20] = test system: Streptococcus faecalis (ATCC 29212); assay: as above; settings: Enterococcus faecalis, ATCC29212
Description: as §1, with “μg/ml). Anti-bacterial activity of the compound having Formula III was tested against several Gram-positive reference bacteria strains and compared to the anti-bacterial activity of three commercially available antibiotics (nadifloxacin, ofloxacin, and sparfloxacin).” for “μg/ml).”

[21] = test system: Staphylococcus aureus (ATCC 25933); assay: as above; settings: ATCC25933
Description: as §1, with “μg/ml). Anti-bacterial activity of the compound having Formula III was tested against several Gram-positive reference bacteria strains and compared to the anti-bacterial activity of three commercially available antibiotics (nadifloxacin, ofloxacin, and sparfloxacin).” for “μg/ml).”

[22] = test system: Bacillis subtilis (ATCC 6633); assay: as above
Description: as §1, with “μg/ml). Anti-bacterial activity of the compound having Formula III was tested against several Gram-positive reference bacteria strains and compared to the anti-bacterial activity of three commercially available antibiotics (nadifloxacin, ofloxacin, and sparfloxacin).” for “μg/ml).”

[23] = test system: Staphylococcus epidermidis (ATCC 12228); assay: as above; settings: ATCC12228
Description: as §1, with “μg/ml). Anti-bacterial activity of the compound having Formula III was tested against several Gram-positive reference bacteria strains and compared to the anti-bacterial activity of three commercially available antibiotics (nadifloxacin, ofloxacin, and sparfloxacin).” for “μg/ml).”

[24] = test system: Streptococcus pneniae (IID 554); assay: as above; settings: IID554
Description: as §1, with “μg/ml). Anti-bacterial activity of the compound having Formula III was tested against several Gram-positive reference bacteria strains and compared to the anti-bacterial activity of three commercially available antibiotics (nadifloxacin, ofloxacin, and sparfloxacin).” for “μg/ml).”

[25] = test system: Streptococcus pneumoniae (IID 553); assay: as above; settings: IID553
Description: as §1, with “μg/ml). Anti-bacterial activity of the compound having Formula III was tested against several Gram-positive reference bacteria strains and compared to the anti-bacterial activity of three commercially available antibiotics (nadifloxacin, ofloxacin, and sparfloxacin).” for “μg/ml).”

[26] = test system: Peptostreptococcus micros (GIFU 7824); assay: In vitro anti-bacterial activity (MIC90), anaerobic reference bacteria; settings: Parvimonas micra
[27] = test system: Peptostreptococcus magnum (GAI 0664); assay: as above
[28] = test system: Propionibacterium acnes (ATCC 11828); assay: as above; settings: Cutibacterium acnes, ATCC11828
[29] = test system: Salmonella typhimurium (TD); assay: In vitro anti-bacterial activity (MIC90), Gram-negative reference strains
Description: Anti-bacterial activity of the compound having Formula III was tested against several Gram-negative reference bacteria strains and compared to the anti-bacterial activity of three commercially available antibiotics (nadifloxacin, ofloxacin, and sparfloxacin).

[30] = test system: Bacteroides vulgatus (GAI 0673); assay: In vitro anti-bacterial activity (MIC90), anaerobic reference bacteria; settings: Phocaeicola vulgatus
[31] = test system: Bacteroides fragillis (GAI 0675); assay: as above
[32] = test system: Gentamycin-resistant Staphylococcus aureus; assay: In vitro anti-bacterial activity (MIC90), ophthalmologic clinical bacteria isolates
Staphylococcus aureus = assay: as above; settings: Gram-positive
[33] = test system: Penicillin-resistant Streptococcus pneumoniae; assay: as above
Corynebacterium species = assay: as above; settings: Gram-positive
Moraxella species = assay: as above; settings: Gram-negative
Haemophilus influenzae = assay: as above; settings: Gram-negative
Streptococcus pneumoniae = assay: as above; settings: Gram-positive
Propionibacterium acnes = assay: as above; settings: Cutibacterium acnes, Gram-positive
[34] = test system: Ofloxacin-resistant Staphylococcus aureus; assay: as above
[35] = test system: Gentamycin-resistant Pseudomonas aeruginosa; assay: as above
Pseudomonas aeruginosa = assay: as above; settings: Gram-negative
[36] = test system: Coagulase-negative Staphylococcus; assay: as above; settings: Gram-positive

Row | SMILES | MIC90 [1] [µg/mL] | MIC90 [2] [µg/mL] | MIC90 [3] [µg/mL] | MIC90 [4] [µg/mL] | MIC90 [5] [µg/mL] | MIC90 [6] [µg/mL] | MIC90 [7] [µg/mL] | MIC90 [8] [µg/mL] | MIC90 [9] [µg/mL] | MIC90 [10] [µg/mL] | MIC90 [11] [µg/mL] | MIC90 [12] [µg/mL] | MIC90 [13] [µg/mL] | MIC90 [14] [µg/mL] | MIC90 [15] [µg/mL] | MIC90 [16] [µg/mL] | MIC90 [17] [µg/mL] | MIC90 [18] [µg/mL] | MIC90 [19] [µg/mL] | MIC90 [20] [µg/mL] | other results
1 | CC1CCc2c(N3CCC(O)CC3)c(F)cc3c(=O)c(C(=O)O)cn1c23 (centres unmarked) [Nadifloxacin] | 0.2 (≈ 0.555 µM) | 0.2 (≈ 0.555 µM) | 0.2 (≈ 0.555 µM) | 1.56 (≈ 4.33 µM) | 0.78 (≈ 2.16 µM) | 0.024 (≈ 0.0666 µM) | 0.006 (≈ 0.0166 µM) | 0.05 (≈ 0.139 µM) | 0.39 (≈ 1.08 µM) | 0.78 (≈ 2.16 µM) | 0.1 (≈ 0.277 µM) | 0.024 (≈ 0.0666 µM) | 0.78 (≈ 2.16 µM) | 0.39 (≈ 1.08 µM) | 0.1 (≈ 0.277 µM) | 0.024 (≈ 0.0666 µM) | 0.78 (≈ 2.16 µM) | 0.024 (≈ 0.0666 µM) | 0.78 (≈ 2.16 µM) | 0.78 (≈ 2.16 µM) | MIC90 [21]: 0.05 µg/mL (≈ 0.139 µM); MIC90 [22]: 0.006 µg/mL (≈ 0.0166 µM); MIC90 [23]: 0.1 µg/mL (≈ 0.277 µM); MIC90 [24]: 0.78 µg/mL (≈ 2.16 µM); MIC90 [25]: 0.78 µg/mL (≈ 2.16 µM); MIC90 [26]: 0.39 µg/mL (≈ 1.08 µM); MIC90 [27]: 0.2 µg/mL (≈ 0.555 µM); MIC90 [28]: 0.78 µg/mL (≈ 2.16 µM); MIC90 [29]: 0.2 mμg/mL; MIC90 [30]: 0.78 µg/mL (≈ 2.16 µM); MIC90 [31]: 1.56 µg/mL (≈ 4.33 µM)
2 | C[C@@H]1CN(c2c(F)c(N)c3c(=O)c(C(=O)O)cn(C4CC4)c3c2F)C[C@H](C)N1 [Sparfloxacin] | 0.39 (≈ 0.994 µM) | 0.39 (≈ 0.994 µM) | 0.39 (≈ 0.994 µM) | 0.78 (≈ 1.99 µM) | 0.39 (≈ 0.994 µM) | 0.05 (≈ 0.127 µM) | 0.024 (≈ 0.0612 µM) | 0.1 (≈ 0.255 µM) | 1.56 (≈ 3.98 µM) | 0.78 (≈ 1.99 µM) | 0.2 (≈ 0.51 µM) | 0.024 (≈ 0.0612 µM) | 0.2 (≈ 0.51 µM) | 1.56 (≈ 3.98 µM) | 0.2 (≈ 0.51 µM) | 0.05 (≈ 0.127 µM) | 0.78 (≈ 1.99 µM) | 0.024 (≈ 0.0612 µM) | 0.39 (≈ 0.994 µM) | 0.39 (≈ 0.994 µM) | MIC90 [21]: 0.1 µg/mL (≈ 0.255 µM); MIC90 [22]: 0.024 µg/mL (≈ 0.0612 µM); MIC90 [23]: 0.2 µg/mL (≈ 0.51 µM); MIC90 [24]: 0.39 µg/mL (≈ 0.994 µM); MIC90 [25]: 0.39 µg/mL (≈ 0.994 µM); MIC90 [26]: 0.78 µg/mL (≈ 1.99 µM); MIC90 [27]: 0.1 µg/mL (≈ 0.255 µM); MIC90 [28]: 0.78 µg/mL (≈ 1.99 µM); MIC90 [29]: 0.012 mμg/mL; MIC90 [30]: 0.78 µg/mL (≈ 1.99 µM); MIC90 [31]: 0.78 µg/mL (≈ 1.99 µM)
3 | CCn1cc(C(=O)O)c(=O)c2cc(F)c(N3CCNCC3)cc21 [Norfloxacin] |  |  |  |  |  |  |  |  |  |  |  |  |  |  |  |  |  |  |  |  | MIC90 [32]: 128 µg/mL (≈ 401 µM); MIC90 (Staphylococcus aureus): > 128 µg/mL; MIC90 [33]: 8 µg/mL (≈ 25.1 µM); MIC90 (Corynebacterium species): 16 µg/mL (≈ 50.1 µM); MIC90 (Moraxella species): 0.25 µg/mL (≈ 0.783 µM); MIC90 (Haemophilus influenzae): ≤ 0.06 µg/mL; MIC90 (Streptococcus pneumoniae): 8 µg/mL (≈ 25.1 µM); MIC90 (Propionibacterium acnes): 4 µg/mL (≈ 12.5 µM); MIC90 [34]: > 128 µg/mL; MIC90 [35]: 128 µg/mL (≈ 401 µM); MIC90 (Pseudomonas aeruginosa): 4 µg/mL (≈ 12.5 µM); MIC90 [36]: 128 µg/mL (≈ 401 µM)
